# From US9498455B2, “Cinacalcet and neuroblastic tumours” (HOSPITAL SAINT JOAN DE DEU, priority 2012, dated 2016)
# Assays:
# [1] = test system: wild type SK-N-LP cells; assay: CASR activation by calcium after serum deprivation, wild type or pCMV-GFP SK-N-LP cells; format: cell-based; settings: 3 mM CaCl2 after 16 hours serum deprivation; wild type or pCMV-GFP transfected
# Experimental: (§1) Wild type SK-N-LP cells stably transfected with pCMV-GFP or pCMV-CASR-GFP (1×10^6) in RPMI 10% FBS were seeded in P100 plates. The medium was substituted the next day with a serum-free medium (calcium-free DMEM supplemented with 0.2% bovine albumin, 4 mM L-glutamine and 0.5 mM CaCl2). This was maintained for 16 hours before substituting it with the same medium supplemented or not supplemented with up to 3 mM CaCl2. […] In the latter cell lines, indications of cell death were detected, but the cells continued to proliferate until reaching confluence, whereas cells with overexpression of CASR completely disappeared in 5 days.
# [2] = test system: SK-N-LP cells with overexpression of CASR; assay: CASR activation by calcium after serum deprivation, SK-N-LP cells with overexpression of CASR; format: cell-based
# Experimental: as §1
# In order to determine if the cell death process occurred by means of apoptosis, total proteins of wild type SK-N-LP cells (WT) and cells with overexpression of CASR (CASR) were extracted 24 and 48 hours after exposure to this model. The proteins were subjected to SDS-PAGE gel electrophoresis, transferred to a nitrocellulose membrane and incubated with specific antibodies to detect activated caspase 3 and c-PARP (Cell Signaling). Suitable secondary antibodies labeled with peroxidase were used, and it was developed with the Amersham ECL system.
# [3] = test system: SK-N-BE(2)C; assay: Cell viability (MTS) after 72 hours, SK-N-BE(2)c neuroblastoma cell line; format: cell-based; settings: no unit in table, tested concentrations given in μM, read-out: IC50 (drug concentration causing the death of 50% of the cells with respect to the control)
# Experimental: (§2) 5×10^3 cells of each cell line (LAN-1, SK-N-BE(2)c, LA1-55n, LA1-5s, SK-N-LP, SK-N-JD, SK-N-AS) were seeded in 96-well plates (6 replicates per condition). The initial medium (RPMI 10% FBS) was removed the next day and substituted with the same medium containing several concentrations (100 μM, 65 μM, 30 μM, 25 μM, 20 μM, 15 μM, 10 μM, 5 μM, 3 μM, 1 μM, 0.3 μM) of cinacalcet (Selleck Biochemicals) or NPS R-568 (Tocris) or equivalent amounts of DMSO (Sigma-Aldrich). Cell viability was evaluated after 72 hours by means of quantifying the percentage of viable cells by means of the Promega CellTiter 96(r) Aqueous One Solution Cell Proliferation Assay (MTS) system. It was thus observed that both drugs induced a decrease in cell viability in the 7 cell lines examined (FIG. 2), and that in 5 of said cell lines the IC50 (drug concentration causing the death of 50% of the cells with respect to the control) of cinacalcet was less than that of NPS R-568 in a statistically significant manner (Table 1). In the case of SK-N-AS and LA1-55n cell lines, the difference in the effect promoted by both drugs was not statistically significant (Table 1).
# [4] = test system: SK-N-AS; assay: Cell viability (MTS) after 72 hours, SK-N-AS neuroblastoma cell line; format: cell-based; settings: Homo sapiens, no unit in table, tested concentrations given in μM, read-out: IC50 (drug concentration causing the death of 50% of the cells with respect to the control)
# Experimental: as §2
# [5] = test system: LA1-55n; assay: Cell viability (MTS) after 72 hours, LA1-55n neuroblastoma cell line; format: cell-based; settings: no unit in table, tested concentrations given in μM, read-out: IC50 (drug concentration causing the death of 50% of the cells with respect to the control)
# Experimental: as §2
# [6] = test system: Xenografts of LAN-1 cell line; assay: In vivo model of neuroblastoma, LAN-1 xenografts, morphological examination; design: species or system athymic nu/nu mice; settings: LAN-1 xenograft, oral 100 mg/kg 6 days a week from day 12, sacrificed after 40 days
# Experimental: (§3) Xenografts of LAN-1 and SK-N-LP cell lines were generated for which aliquots containing 10×10^6 cells from said cell lines were inoculated subcutaneously in 4-6 week old female athymic nu/nu mice (Charles Rivers). Starting from day 12, when the forming tumor could already be measured using Vernier calipers, oral treatment was started 6 days a week with cinacalcet 100 mg/kg (FIGS. 3C-3F) and with the carrier as a negative control (FIGS. 3A and 3B). The tumor volume was measured every 2-3 days. The mice were sacrificed after 40 days. Each tumor was weighed before being sectioned into two halves: one half was frozen in liquid nitrogen for expression analysis and the other half was fixed and embedded in paraffin for morphological examination and immunohistochemical analyses.
# [7] = test system: LAN-1; assay: Cell viability (MTS) after 72 hours, LAN-1 neuroblastoma cell line; format: cell-based; settings: LAN1, LAN-1, 72 hours, no unit in table, tested concentrations given in μM, read-out: IC50 (drug concentration causing the death of 50% of the cells with respect to the control)
# Experimental: as §2
# [8] = test system: Xenografts of SK-N-LP cell line; assay: In vivo model of neuroblastoma, SK-N-LP xenografts, morphological examination; design: species or system athymic nu/nu mice; settings: SK-N-LP xenograft, oral 100 mg/kg 6 days a week from day 12, sacrificed after 40 days
# Experimental: as §3
# [9] = test system: SK-N-LP; assay: Cell viability (MTS) after 72 hours, SK-N-LP neuroblastoma cell line; format: cell-based; settings: no unit in table, tested concentrations given in μM, read-out: IC50 (drug concentration causing the death of 50% of the cells with respect to the control)
# Experimental: as §2
# [10] = test system: LA1-5s; assay: Cell viability (MTS) after 72 hours, LA1-5s neuroblastoma cell line; format: cell-based; settings: no unit in table, tested concentrations given in μM, read-out: IC50 (drug concentration causing the death of 50% of the cells with respect to the control)
# Experimental: as §2
# [11] = test system: SK-N-JD; assay: Cell viability (MTS) after 72 hours, SK-N-JD neuroblastoma cell line; format: cell-based; settings: no unit in table, tested concentrations given in μM, read-out: IC50 (drug concentration causing the death of 50% of the cells with respect to the control)
# Experimental: as §2
SMILES,Cell death (morphology) [1],Cell death (morphology) ([2]; 3 mM CaCl2 after 16 hours serum deprivation),Caspase 3 activation and PARP cleavage (Western blot) ([2]; 24 and 48 hours after exposure to 3 mM CaCl2 model),IC50 [3] [µM],IC50 [4] [µM],IC50 [5] [µM],Morphological analysis of the xenografts: cell death [6],Morphological analysis of the xenografts: differentiation [6],IC50 [7] [µM],Morphological analysis of the xenografts: cell death [8],Morphological analysis of the xenografts: differentiation [8],IC50 [9] [µM],IC50 [10] [µM],IC50 [11] [µM]
[Ca+2].[Cl-].[Cl-] [CaCl2],hardly appreciable,suffered cell death,accompanied by caspase 3 activation and PARP cleavage,,,,,,,,,,,
"C[C@@H](NCCCc1cccc(C(F)(F)F)c1)c1cccc2ccccc12 [Cinacalcet, cinacalcet]",,,,10.7,10.3,10.5,large areas with necrosis and/or apoptosis,morphological signs of differentiation in viable cells,17.2,large areas with necrosis and/or apoptosis,morphological signs of differentiation in viable cells,10.3,16.7,10.9
COc1cccc([C@@H](C)NCCCc2ccccc2Cl)c1 [NPS R-568],,,,16.6,15.1,11.4,,,24.8,,,22.4,34.5,25.8
